Data set [1] deals with T1, DNA topoisomerase 1 (Homo sapiens) (UniProt P11387).
T1 sequence (whole entry): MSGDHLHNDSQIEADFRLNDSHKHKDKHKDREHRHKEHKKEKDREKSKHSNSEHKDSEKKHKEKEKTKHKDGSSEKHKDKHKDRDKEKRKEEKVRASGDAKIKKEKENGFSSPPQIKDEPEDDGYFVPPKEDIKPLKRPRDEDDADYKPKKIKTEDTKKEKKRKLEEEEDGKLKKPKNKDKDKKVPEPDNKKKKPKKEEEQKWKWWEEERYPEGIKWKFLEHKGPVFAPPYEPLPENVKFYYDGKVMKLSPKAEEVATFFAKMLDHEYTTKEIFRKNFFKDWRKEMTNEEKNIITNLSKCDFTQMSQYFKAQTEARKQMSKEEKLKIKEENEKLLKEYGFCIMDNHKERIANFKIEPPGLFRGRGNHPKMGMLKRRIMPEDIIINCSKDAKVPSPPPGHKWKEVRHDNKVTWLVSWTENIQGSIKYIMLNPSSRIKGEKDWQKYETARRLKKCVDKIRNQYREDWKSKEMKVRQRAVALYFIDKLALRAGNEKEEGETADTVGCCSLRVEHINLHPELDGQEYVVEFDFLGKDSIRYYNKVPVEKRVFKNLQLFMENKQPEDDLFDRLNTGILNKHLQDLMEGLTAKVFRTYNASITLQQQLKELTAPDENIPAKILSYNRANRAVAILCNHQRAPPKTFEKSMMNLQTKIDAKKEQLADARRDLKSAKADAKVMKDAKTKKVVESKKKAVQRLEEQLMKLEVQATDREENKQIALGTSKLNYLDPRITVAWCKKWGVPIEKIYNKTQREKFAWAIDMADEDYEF
The data set can be described thus: Inhibition of human topoisomerase 1 mediated relaxation of supercoiled pHOT1 DNA at 5 to 20 uM incubated for 30 mins by agarose gel electrophoresis. Particulars: dose 5-20 µM.

The subject of data set [2] is MDA-MB-231. Briefly: Antiproliferative activity against human MDA-MB-231 cells assessed as inhibition of cell growth incubated for 24 hrs by CCK8 assay. The data set is classed as functional, cell-based. Particulars: MDA-MB-231, 24 h.
Another data set relates to Quadruplex DNA. The data set can be described thus: Inhibition of c-myc G4-quadruplex DNA transcriptional activity in human MDA-MB-231 cells incubated for 24 hrs by RT-PCR analysis. The data set is classed as cell-based.
For data set [3], the system named is MDA-MB-231. The data set can be described thus: Antitumor activity against human MDA-MB-231 cells xenografted in BALB/c mouse assessed as tumor growth inhibition measured at 2.5 mg/kg, ip administered every other day for 20 days. Format: functional. Particulars: time 20.0 day. Background: In xenograft studies the graft and the host belong to different species.

The nature of data set [4]: Toxicity in human MDA-MB-231 cells xenografted BALB/c mouse assessed as body weight loss at 2.5 mg/kg, ip administered every other day for 20 days. Format: organism-based. The note with it: in vivo, 480 h, time 20 day.
Data set [5] has as its system MDA-MB-231. The data set can be described thus: Antiproliferative activity against human MDA-MB-231 cells assessed as inhibition in cell growth at 20 uM incubated for 24 hrs by CCK8 assay. Format: functional, cell-based. A general note: Tetrazolium dyes change colour on reduction, which living cells bring about.
Data set [6] addresses T1, DNA topoisomerase 1 (Homo sapiens). Briefly: Inhibition of human topoisomerase 1 assessed as DNA intercalation at 1.2 uM using relaxed pHOT-1 DNA as substrate preincubated with DNA for 10 mins followed by enzyme addition and measured after 30 mins by agarose gel electrophoresis. Particulars: time 40.0 min.

Usually IC50 stands for the concentration that gives 50% inhibition.

The structures appear in SMILES notation. Active and inactive are the calls of the source. The calls are words filed in the database; no cut-off is given here.

As to `Cc1cc2nc3c4ccc(N5CCN(C)CC5)cc4c4cc(N5CCN(C)CC5)ccc4c3nc2cc1C`, the inhibition result (in data set [1]; with Quadruplex DNA) was “Active” throughout. Further, the IC50 in the data set with MDA-MB-231 [2] was 2700 nM.

In the case of `COc1cc2nc3c4ccc(N5CCN(C)CC5)cc4c4cc(N5CCN(C)CC5)ccc4c3nc2cc1OC`, the inhibition result (in data set [1]; in the data set on Quadruplex DNA) was “inactive” in each case. Further, in the data set on MDA-MB-231 [2], the IC50 stood at 16800 nM.

As for `CN1CCN(c2ccc(-c3nc4cc(F)c(F)cc4nc3-c3ccc(N4CCN(C)CC4)cc3)cc2)CC1`, the inhibition entry in data set [1] was “inactive”. Besides, the IC50 in the data set on MDA-MB-231 [2] was 1900 nM. Further, the inhibition result in the data set on Quadruplex DNA was “Active”.

On to `CN1CCN(c2ccc3c(c2)c2cc(N4CCN(C)CC4)ccc2c2nc4cnccc4nc32)CC1`, for which the inhibition entry in data set [1] was “Active”. Also, the IC50 in the data set with MDA-MB-231 [2] is 17500 nM. Also, the inhibition result in the data set with Quadruplex DNA was “inactive”.

Turning to `CN1CCN(c2ccc3c(c2)c2cc(N4CCN(C)CC4)ccc2c2nc4ccccc4nc32)CC1`, the inhibition entry (in data set [1]; with Quadruplex DNA) was “Active” each time. The IC50 with MDA-MB-231 [2] was 1100 nM.

With `COc1cccc2c1C(=O)c1c(O)c3c(c(O)c1C2=O)C[C@@](O)(C(=O)CO)C[C@@H]3O[C@H]1C[C@H](N)[C@H](O)[C@H](C)O1` [DOXORUBICIN], the Activity entry in the data set with MDA-MB-231 [3] is “Dose-Dependent Effect”; in data set [4], “Toxic”. In addition, the outcome with MDA-MB-231 [5] was Active.

As for `CN1CCN(c2ccc3c(c2)c2cc(N4CCN(C)CC4)ccc2c2nc4cc(F)ccc4nc32)CC1`, the inhibition entry (in data set [1]; with Quadruplex DNA) was “Active” throughout. Further, the IC50 in the data set with MDA-MB-231 [2] is 1100 nM.

For the molecule `CN1CCN(c2ccc3c(c2)c2cc(N4CCN(C)CC4)ccc2c2nc4cc5c(cc4nc32)N(C)CCN5C)CC1`, the IC50 with MDA-MB-231 [2] is 3100 nM. Besides, the inhibition entry in the data set on Quadruplex DNA was “inactive”.

`CC1CCN(c2cc3nc4c5ccc(N6CCN(C)CC6)cc5c5cc(N6CCN(C)CC6)ccc5c4nc3cc2F)CC1`: the inhibition entry (in data set [1]; with Quadruplex DNA) was “inactive” each time. Besides, the concentration for half-maximal inhibition (IC50) in the data set on MDA-MB-231 [2] came out at 9800 nM.

Take `CN1CCN(c2ccc3c(c2)c2cc(N4CCN(C)CC4)ccc2c2nc4cc5ccccc5cc4nc32)CC1`: in the data set on MDA-MB-231 [2], the IC50 came out at 5400 nM.

In the case of `CN1CCN(c2ccc3c(c2)c2cc(N4CCN(C)CC4)ccc2c2nc4cc(F)c(F)cc4nc32)CC1`, the inhibition entry in data set [1] is “Active”. The IC50 in the data set on MDA-MB-231 [2] stood at 2100 nM.

In the case of `CN1CCN(c2ccc3c(c2)c2cc(N4CCN(C)CC4)ccc2c2nc4cc(C(F)(F)F)ccc4nc32)CC1`, the inhibition entry (in data set [1]; in the data set on Quadruplex DNA) was “inactive” each time. Besides, the half-maximal inhibitory concentration (IC50) with MDA-MB-231 [2] was determined as 5600 nM.

Turning to `CC[n+]1c(-c2ccccc2)c2cc(N)ccc2c2ccc(N)cc21`, the inhibition entry in data set [6] is “Active”.

On to `CN1CCN(c2ccc3c(c2)c2cc(N4CCN(C)CC4)ccc2c2nc4cc(Oc5ccccc5)ccc4nc32)CC1`, for which the inhibition result (in data set [1]; with Quadruplex DNA) was “inactive” in each case. Also, the half-inhibitory concentration (IC50) with MDA-MB-231 [2] worked out at 2200 nM.
